# Laboratory results as given in US7351690B2, “Knockout identification of target-specific sites in peptides” (priority 2000, dated 2008).
# Square brackets hold non-standard residues; d marks the D form. Ends that are not written are not given here. pGlu = O=C1CC[C@@H](C(=O)O)N1; Nle = CCCC[C@H](N)C(=O)O
# System: bombesin receptor
# Assay: competitive binding assay, 125I-Bombesin, rat brain membranes
# Details: for % Inhibition: inhibition of 0.01 nM 125I-Bombesin binding, rat brain membranes, test concentration not given
# Procedure: Rat brain membranes were utilized as the source of bombesin receptor. The competitive binding assay was performed using a procedure as described by Moody T W, Perk C B, Rivier J, Brown, M R. (Proc Natl Acad Sci USA. 75:5372-5376, […]) and adapted to a 96 well format. An aliquot of membranes taken in assay buffer (50 mM Tris and HCl, pH 7.4 containing 1 mg/mL BSA and 2 μg/mL bacitracin) was incubated with 0.01 nM of ^125I-Bombesin with or without varying concentrations of the test compound for 60 min at 4° C. The incubation was terminated by rapid filtration of the assay mixture, followed by washing the filters with ice-cold buffer. The filters were dried and counted in a gamma counter for retained radioactivity. Non-specific binding was measured by including 1 μM Bombesin in the assay tube. The assay was performed in triplicate and results calculated to determine percentage inhibition of the ^125I-Bombesin binding to its receptors by a test compound. The parent polypeptide is shown in Table 6, with metallopeptides having Cys inserted as shown.
Substance,% Inhibition,"binding to bombesin receptor, in words"
Pyr-Gln-Arg-Leu-Gly-Asn-Gln-Trp-Ala-Val-Gly-His-Cys-Nle-NH2 (QRLGNQWAVGHC; N-term pyroglutamate; Nle-NH2; rhenium complex; printed: Gln-Arg-Leu-Gly-Asn-Gln-Trp-Ala-Val-Gly-His-Cys-) [7-2],66%,
Pyr-Gln-Arg-Leu-Gly-Asn-Gln-Trp-Ala-Val-Gly-His-Leu-Cys-NH2 (QRLGNQWAVGHLC; N-term pyroglutamate; C-terminal amide; rhenium complex; printed: Gln-Arg-Leu-Gly-Asn-Gln-Trp-Ala-Val-Gly-His-Leu-Cys-) [7-1],73%,
D-Phe-Gln-Cys-Trp-Ala-Val-Gly-His-Leu-Leu-NH2 ([dF]QCWAVGHLL-NH2; also: oxorhenium(V) N3S1 tetradentate complex via Cys) [8-8],62%,
Pyr-Gln-Arg-Leu-Gly-Asn-Gln-Cys-Trp-Ala-Val-Gly-His-Leu-Nle-NH2 ([pGlu]QRLGNQCWAVGHL[Nle]-NH2; numbers in words are those of the source; also: oxorhenium(V) N3S1 chelate (Re(V)=O)) [6-8],75%,
Pyr-Gln-Arg-Cys-Gly-Asn-Gln-Trp-Ala-Val-Gly-His-Leu-Nle-NH2 (QRCGNQWAVGHL; N-term pyroglutamate; Nle-NH2; rhenium complex; printed: Gln-Arg-Cys-Gly-Asn-Gln-Trp-Ala-Val-Gly-His-Leu-) [7-11],95%,
Gln-Trp-Ala-Val-Cys-His-Leu-Leu-NH2 [11-4] (QWAVCHLL-NH2; not fully specified (bridges); printed as Gln-Trp-Ala-Val-Cys-His-Leu-Leu-NH2; also: oxorhenium(V) N3S1 chelate (Re(V)=O)),25%,
Ala-Val-Cys-His-Leu-Leu-NH2 (AVCHLL-NH2; not fully specified (bridges); printed as Ala-Val-Cys-His-Leu-Leu-NH2; also: oxorhenium(V) N3S1 chelate (Re(V)=O)) [11-6],6%,
Ala-Val-Cys-NH2 (not fully specified (bridges); printed as Ala-Val-Cys-NH2; also: oxorhenium(V) N3S1 chelate (Re(V)=O)) [11-15],4%,
D-Phe-Gln-Trp-Ala-Cys-Val-His-Leu-Leu-NH2 ([dF]QWACVHLL-NH2; also: rhenium complex (oxorhenium(V) N3S1 chelate via Cys)) [12-2],3%,
"D-Phe-Gln-Trp-Ala-Val-D-Cys-His-Leu-Leu-NH2 (chain 1 [dF]QWAV; chain 2 [dC]HLL-NH2; not fully specified (bridges); also: chain 2 continues chain 1 in one peptide (Val-D-Cys bond), Re-peptide (rhenium complex)) [10-2]",64%,
D-Phe-Gln-Trp-Ala-Val-Gly-Cys-Leu-Leu-NH2 ([dF]QWAVGCLL-NH2; also: oxorhenium(V) N3S1 chelate via Cys (Re(V)=O)) [9-3],70%,
D-Phe-Gln-Trp-Ala-Val-Gly-His-Leu-Cys-NH2 ([dF]QWAVGHLC-NH2; also: rhenium complex (oxorhenium(V) N3S1 chelate via Cys)) [9-1],86%,
Ala-Val-Cys-His-NH2 (AVCH-NH2; not fully specified (bridges); printed as Ala-Val-Cys-His-NH2; also: oxorhenium(V) N3S1 chelate (Re(V)=O)) [11-12],5%,
Pyr-Gln-Arg-Cys-Leu-Gly-Asn-Gln-Trp-Ala-Val-Gly-His-Leu-Nle-NH2 ([pGlu]QRCLGNQWAVGHL[Nle]-NH2; numbers in words are those of the source; also: oxorhenium(V) N3S1 chelate (Re(V)=O)) [6-12],97%,
Pyr-Gln-Arg-Leu-Gly-Asn-Gln-Cys-Ala-Val-Gly-His-Leu-Nle-NH2 (QRLGNQCAVGHL; N-term pyroglutamate; Nle-NH2; rhenium complex; printed: Gln-Arg-Leu-Gly-Asn-Gln-Cys-Ala-Val-Gly-His-Leu-) [7-7],−2%,Complete inactivity
D-Phe-Gln-Trp-Cys-Val-Gly-His-Leu-Leu-NH2 ([dF]QWCVGHLL-NH2; also: oxorhenium(V) N3S1 chelate complex (Re=O)) [9-6],43%,
Trp-Ala-Val-Cys-His-Leu-Leu-NH2 (WAVCHLL-NH2; not fully specified (bridges); printed as Trp-Ala-Val-Cys-His-Leu-Leu-NH2; also: oxorhenium(V) N3S1 chelate (Re=O) with Cys) [11-5],18%,

Substance,% Inhibition,"binding to bombesin receptor, in words"
Pyr-Gln-Arg-Leu-Gly-Asn-Gln-Trp-Ala-Cys-Val-Gly-His-Leu-Nle-NH2 ([pGlu]QRLGNQWACVGHL[Nle]-NH2; numbers in words are those of the source; also: oxorhenium(V) N3S1 chelate (Re=O) with Cys) [6-6],83%,
Ac-Ala-Gln-Cys-Arg-Leu-Gly-Asn-Gln-Trp-Ala-Val-Gly-His-Leu-Nle-NH2 (Ac-AQCRLGNQWAVGHL[Nle]-NH2; also: oxorhenium(V) N3S1 tetradentate complex via Cys) [6-13],99%,
Pyr-Gln-Arg-Leu-Gly-Asn-Gln-Trp-Ala-Val-Gly-His-Leu-Nle-Cys-NH2 ([pGlu]QRLGNQWAVGHL[Nle]C-NH2; numbers in words are those of the source; also: rhenium complex (oxorhenium(V) N3S1 tetradentate chelate via Re=O core)) [6-1],82%,
D-Phe-Gln-Trp-Val-Cys-His-Leu-Leu-NH2 ([dF]QWVCHLL-NH2; also: oxorhenium(V) N3S1 chelate complex (Re=O)) [12-4],5%,
D-Phe-Gln-Trp-Ala-Val-Cys-His-Leu-NH2 ([dF]QWAVCHL-NH2; also: oxorhenium(V) N3S1 chelate via Cys (Re(V)=O)) [11-1],98%,
Trp-Ala-Val-Cys-NH2 (WAVC-NH2; not fully specified (bridges); printed as Trp-Ala-Val-Cys-NH2; also: oxorhenium(V) N3S1 chelate (Re=O) with Cys) [11-14],8%,
D-Phe-Gln-Trp-Ala-Val-Cys-Gly-His-Leu-Leu-NH2 ([dF]QWAVCGHLL-NH2; also: oxorhenium(V) N3S1 chelate via Cys (Re(V)=O)) [8-5],70%,
Pyr-Gln-Arg-Leu-Gly-Asn-Gln-Trp-Ala-Val-Cys-His-Leu-Nle-NH2 (QRLGNQWAVCHL; N-terminal pyroglutamate; C-terminal Nle-amide; printed: Gln-Arg-Leu-Gly-Asn-Gln-Trp-Ala-Val-Cys-His-Leu-) [7-4],81%,
Pyr-Gln-Arg-Leu-Gly-Asn-Gln-Trp-Ala-Val-Gly-His-Cys-Leu-Nle-NH2 ([pGlu]QRLGNQWAVGHCL[Nle]-NH2; numbers in words are those of the source; also: rhenium complex (oxorhenium(V) N3S1 chelate via Cys)) [6-3],71%,
Pyr-Gln-Arg-Leu-Gly-Cys-Asn-Gln-Trp-Ala-Val-Gly-His-Leu-Nle-NH2 ([pGlu]QRLGCNQWAVGHL[Nle]-NH2; numbers in words are those of the source; also: rhenium complex (oxorhenium(V) N3S1 tetradentate chelate via Re=O core)) [6-10],93%,
Pyr-Gln-Arg-Leu-Gly-Asn-Gln-Trp-Cys-Val-Gly-His-Leu-Nle-NH2 (QRLGNQWCVGHL; N-terminal pyroglutamate; C-terminal Nle-amide; printed: Gln-Arg-Leu-Gly-Asn-Gln-Trp-Cys-Val-Gly-His-Leu-) [7-6],91%,
Pyr-Gln-Arg-Leu-Gly-Asn-Gln-Trp-Ala-Val-Gly-Cys-His-Leu-Nle-NH2 ([pGlu]QRLGNQWAVGCHL[Nle]-NH2; numbers in words are those of the source; also: oxorhenium(V) N3S1 chelate (Re=O) with Cys) [6-4],70%,
Ac-Ala-Gln-Cys-Leu-Gly-Asn-Gln-Trp-Ala-Val-Gly-His-Leu-Nle-NH2 (Ac-AQCLGNQWAVGHL[Nle]-NH2; also: oxorhenium(V) N3S1 tetradentate complex via Cys) [7-12],96%,
D-Phe-Gln-Trp-Val-Cys-Gly-His-Leu-Leu-NH2 ([dF]QWVCGHLL-NH2; also: oxorhenium(V) N3S1 chelate complex (Re=O)) [12-1],2%,
D-Phe-Gln-Trp-Ala-Val-Cys-His-NH2 ([dF]QWAVCH-NH2; also: oxorhenium(V) N3S1 chelate via Cys (Re(V)=O)) [11-2],25%,
D-Phe-Gln-Trp-Ala-Val-Gly-Cys-His-Leu-Leu-NH2 ([dF]QWAVGCHLL-NH2; also: oxorhenium(V) N3S1 chelate via Cys (Re(V)=O)) [8-4],59%,
D-Phe-Gln-Trp-Cys-Val-His-Leu-Leu-NH2 ([dF]QWCVHLL-NH2; not fully specified (bridges); printed as D-Phe-Gln-Trp-Cys-Val-His-Leu-Leu-NH2; also: oxorhenium(V) N3S1 chelate complex (Re=O)) [12-6],10%,
